Like-named read-outs stand apart in the source and are kept apart here. Where a SMILES comes first, the peptide text is derived from it. Bridges are numbered along the chain shown (N, C = ends).
What was measured:
rat α3β2 nAChRs = molecular target: T1, rat α3β2 nAChRs (Rattus norvegicus, UniProt P04757+P12390); experiment: cell-based
T1 construct: expressed in transfected cells; host or cells: Xenopus oocytes (cRNA injection)

α2β2 nAChR = molecular target: T2, α2β2 nAChR (Rattus norvegicus, UniProt P12389+P12390); experiment: cell-based
T2 construct: expressed in transfected cells; host or cells: Xenopus oocytes (cRNA injection)
T2 sequence (P12389 28-511 limits assumed): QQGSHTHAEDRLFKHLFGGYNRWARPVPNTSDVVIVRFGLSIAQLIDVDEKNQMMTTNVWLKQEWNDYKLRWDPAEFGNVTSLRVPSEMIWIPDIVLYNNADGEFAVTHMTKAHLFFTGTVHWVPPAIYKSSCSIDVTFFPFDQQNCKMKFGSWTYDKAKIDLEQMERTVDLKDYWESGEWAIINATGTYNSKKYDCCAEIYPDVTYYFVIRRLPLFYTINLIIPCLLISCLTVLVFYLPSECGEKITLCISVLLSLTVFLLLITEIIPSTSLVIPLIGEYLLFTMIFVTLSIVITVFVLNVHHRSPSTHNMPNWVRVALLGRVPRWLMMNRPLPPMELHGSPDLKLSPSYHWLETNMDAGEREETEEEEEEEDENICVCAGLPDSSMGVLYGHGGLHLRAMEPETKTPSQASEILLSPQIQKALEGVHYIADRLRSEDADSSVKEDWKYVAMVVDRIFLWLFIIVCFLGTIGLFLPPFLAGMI
T2 sequence (P12390 25-500 limits assumed): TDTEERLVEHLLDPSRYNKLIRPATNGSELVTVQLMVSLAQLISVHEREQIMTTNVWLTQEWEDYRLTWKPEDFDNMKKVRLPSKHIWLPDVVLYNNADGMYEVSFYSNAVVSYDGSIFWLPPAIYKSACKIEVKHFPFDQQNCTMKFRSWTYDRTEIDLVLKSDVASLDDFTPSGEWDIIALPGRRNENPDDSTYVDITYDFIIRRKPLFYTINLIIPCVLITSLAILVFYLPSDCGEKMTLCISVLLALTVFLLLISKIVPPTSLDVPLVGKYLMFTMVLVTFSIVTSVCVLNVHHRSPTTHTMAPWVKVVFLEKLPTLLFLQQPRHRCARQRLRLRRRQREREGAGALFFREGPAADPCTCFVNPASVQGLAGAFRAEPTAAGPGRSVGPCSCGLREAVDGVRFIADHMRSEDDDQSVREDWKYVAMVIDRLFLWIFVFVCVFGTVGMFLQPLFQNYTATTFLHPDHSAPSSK

α2β4 nAChR = molecular target: T3, α2β4 nAChR (Rattus norvegicus, UniProt P12389+P12392); experiment: cell-based
T3 construct: expressed in transfected cells; host or cells: Xenopus oocytes (cRNA injection)
T3 sequence (P12389 28-511 limits assumed): as the sequence (P12389 28-511 limits assumed) above
T3 sequence (P12392 21-495 limits assumed): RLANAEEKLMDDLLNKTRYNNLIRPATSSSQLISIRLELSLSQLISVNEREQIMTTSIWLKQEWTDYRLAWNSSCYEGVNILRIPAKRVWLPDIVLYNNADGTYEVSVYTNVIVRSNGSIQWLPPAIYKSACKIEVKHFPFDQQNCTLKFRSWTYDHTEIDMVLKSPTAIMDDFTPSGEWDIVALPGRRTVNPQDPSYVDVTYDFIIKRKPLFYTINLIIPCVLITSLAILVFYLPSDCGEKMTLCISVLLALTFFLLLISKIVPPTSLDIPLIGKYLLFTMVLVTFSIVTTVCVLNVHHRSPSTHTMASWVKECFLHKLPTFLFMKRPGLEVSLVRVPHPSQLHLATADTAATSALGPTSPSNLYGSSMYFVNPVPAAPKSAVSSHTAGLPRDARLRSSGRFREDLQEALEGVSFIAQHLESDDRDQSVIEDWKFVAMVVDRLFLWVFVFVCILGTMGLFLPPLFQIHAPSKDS

α3β4 nAChR = molecular target: T4, α3β4 nAChR (Rattus norvegicus, UniProt P04757+P12392); experiment: cell-based
T4 construct: expressed in transfected cells; host or cells: Xenopus oocytes (cRNA injection)
T4 sequence (P04757 26-499 limits assumed): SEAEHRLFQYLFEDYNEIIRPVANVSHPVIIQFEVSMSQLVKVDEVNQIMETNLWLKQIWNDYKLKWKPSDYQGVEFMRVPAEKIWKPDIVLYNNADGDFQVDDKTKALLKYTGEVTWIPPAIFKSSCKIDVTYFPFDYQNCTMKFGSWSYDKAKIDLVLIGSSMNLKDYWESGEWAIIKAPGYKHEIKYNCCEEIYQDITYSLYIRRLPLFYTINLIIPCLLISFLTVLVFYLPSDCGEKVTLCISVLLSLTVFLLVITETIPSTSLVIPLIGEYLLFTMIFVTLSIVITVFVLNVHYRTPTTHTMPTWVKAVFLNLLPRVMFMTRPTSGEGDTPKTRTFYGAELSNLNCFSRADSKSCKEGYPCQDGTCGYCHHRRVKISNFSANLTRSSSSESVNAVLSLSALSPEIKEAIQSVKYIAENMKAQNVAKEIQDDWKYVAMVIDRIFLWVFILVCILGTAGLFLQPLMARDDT
T4 sequence (P12392 21-495 limits assumed): as the sequence (P12392 21-495 limits assumed) above

α4β2 nAChR = molecular target: T5, α4β2 nAChR (Rattus norvegicus, UniProt P09483+P12390); experiment: cell-based
T5 construct: expressed in transfected cells; host or cells: Xenopus oocytes (cRNA injection)

α4β4 nAChR = molecular target: T6, α4β4 nAChR (Rattus norvegicus, UniProt P09483+P12392); experiment: cell-based
T6 construct: expressed in transfected cells; host or cells: Xenopus oocytes (cRNA injection)

α7 nAChR = molecular target: T7, α7 nAChR (Rattus norvegicus, UniProt Q05941); experiment: cell-based
T7 construct: expressed in transfected cells; host or cells: Xenopus oocytes (cRNA injection)

α9α10 nAChR [1] = molecular target: T8, α9α10 nAChR (Rattus norvegicus, UniProt P43144+Q9JLB5); experiment: cell-based
T8 construct: expressed in transfected cells; host or cells: Xenopus oocytes (cRNA injection)
T8 sequence (P43144 26-479 limits assumed): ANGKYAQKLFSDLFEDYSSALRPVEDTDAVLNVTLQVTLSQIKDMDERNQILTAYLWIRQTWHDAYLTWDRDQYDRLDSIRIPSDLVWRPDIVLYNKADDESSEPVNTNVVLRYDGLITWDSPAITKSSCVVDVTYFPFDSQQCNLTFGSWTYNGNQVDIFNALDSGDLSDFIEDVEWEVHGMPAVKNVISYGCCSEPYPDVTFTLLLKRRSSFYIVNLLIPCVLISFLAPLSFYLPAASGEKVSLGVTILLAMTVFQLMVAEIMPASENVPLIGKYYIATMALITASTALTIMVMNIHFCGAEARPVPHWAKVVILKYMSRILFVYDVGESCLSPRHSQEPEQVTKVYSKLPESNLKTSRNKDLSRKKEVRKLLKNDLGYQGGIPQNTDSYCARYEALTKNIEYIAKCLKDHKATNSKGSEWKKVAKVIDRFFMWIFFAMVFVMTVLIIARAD
T8 sequence (Q9JLB5 25-447 limits assumed): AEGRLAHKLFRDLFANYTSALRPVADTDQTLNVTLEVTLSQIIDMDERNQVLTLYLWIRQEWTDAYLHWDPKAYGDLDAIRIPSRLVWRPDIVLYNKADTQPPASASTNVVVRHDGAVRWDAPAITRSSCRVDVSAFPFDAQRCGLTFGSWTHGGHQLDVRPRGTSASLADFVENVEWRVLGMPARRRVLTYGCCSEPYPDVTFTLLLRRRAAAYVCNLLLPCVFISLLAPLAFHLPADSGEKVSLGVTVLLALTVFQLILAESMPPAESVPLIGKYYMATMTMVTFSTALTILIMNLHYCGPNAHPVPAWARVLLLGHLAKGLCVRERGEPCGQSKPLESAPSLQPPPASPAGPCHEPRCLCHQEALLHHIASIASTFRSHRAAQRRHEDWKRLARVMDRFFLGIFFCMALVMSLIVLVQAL

GABABR-coupled Cav2.2 = molecular target: T9, GABABR-coupled Cav2.2 (Homo sapiens, UniProt O75899+Q9UBS5); experiment: cell-based; design: species or system human GABABR and rat Cav2.2
T9 construct: expressed in transfected cells; host or cells: HEK293T cells, transient transfection; GABAB subunit plasmids from David J. Adams, University of Wollongong
T9 sequence (Q9UBS5 15-961 limits assumed): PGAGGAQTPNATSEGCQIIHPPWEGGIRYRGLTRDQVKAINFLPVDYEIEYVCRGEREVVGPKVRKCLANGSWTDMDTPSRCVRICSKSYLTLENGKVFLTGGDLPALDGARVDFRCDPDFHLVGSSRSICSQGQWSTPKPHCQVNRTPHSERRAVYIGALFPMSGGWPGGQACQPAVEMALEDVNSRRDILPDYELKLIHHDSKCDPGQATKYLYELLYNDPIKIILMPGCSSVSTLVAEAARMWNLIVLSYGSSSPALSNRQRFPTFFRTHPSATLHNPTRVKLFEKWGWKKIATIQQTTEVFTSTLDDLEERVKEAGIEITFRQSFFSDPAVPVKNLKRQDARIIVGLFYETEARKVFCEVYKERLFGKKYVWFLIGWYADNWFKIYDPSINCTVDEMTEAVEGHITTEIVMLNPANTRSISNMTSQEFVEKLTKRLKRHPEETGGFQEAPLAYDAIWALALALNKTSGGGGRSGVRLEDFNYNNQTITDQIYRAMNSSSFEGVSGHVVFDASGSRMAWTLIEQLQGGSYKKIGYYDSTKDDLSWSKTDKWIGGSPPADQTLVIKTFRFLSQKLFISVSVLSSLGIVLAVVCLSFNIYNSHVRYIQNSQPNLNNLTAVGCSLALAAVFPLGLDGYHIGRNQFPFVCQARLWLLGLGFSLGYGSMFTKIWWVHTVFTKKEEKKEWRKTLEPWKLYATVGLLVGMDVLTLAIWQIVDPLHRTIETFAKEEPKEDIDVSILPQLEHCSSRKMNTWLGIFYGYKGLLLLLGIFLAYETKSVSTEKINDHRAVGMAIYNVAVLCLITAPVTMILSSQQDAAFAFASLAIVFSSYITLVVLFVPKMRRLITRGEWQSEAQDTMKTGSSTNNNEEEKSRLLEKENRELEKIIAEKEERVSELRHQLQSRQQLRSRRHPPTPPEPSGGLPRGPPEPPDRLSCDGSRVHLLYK
T9 sequence (O75899 42-941): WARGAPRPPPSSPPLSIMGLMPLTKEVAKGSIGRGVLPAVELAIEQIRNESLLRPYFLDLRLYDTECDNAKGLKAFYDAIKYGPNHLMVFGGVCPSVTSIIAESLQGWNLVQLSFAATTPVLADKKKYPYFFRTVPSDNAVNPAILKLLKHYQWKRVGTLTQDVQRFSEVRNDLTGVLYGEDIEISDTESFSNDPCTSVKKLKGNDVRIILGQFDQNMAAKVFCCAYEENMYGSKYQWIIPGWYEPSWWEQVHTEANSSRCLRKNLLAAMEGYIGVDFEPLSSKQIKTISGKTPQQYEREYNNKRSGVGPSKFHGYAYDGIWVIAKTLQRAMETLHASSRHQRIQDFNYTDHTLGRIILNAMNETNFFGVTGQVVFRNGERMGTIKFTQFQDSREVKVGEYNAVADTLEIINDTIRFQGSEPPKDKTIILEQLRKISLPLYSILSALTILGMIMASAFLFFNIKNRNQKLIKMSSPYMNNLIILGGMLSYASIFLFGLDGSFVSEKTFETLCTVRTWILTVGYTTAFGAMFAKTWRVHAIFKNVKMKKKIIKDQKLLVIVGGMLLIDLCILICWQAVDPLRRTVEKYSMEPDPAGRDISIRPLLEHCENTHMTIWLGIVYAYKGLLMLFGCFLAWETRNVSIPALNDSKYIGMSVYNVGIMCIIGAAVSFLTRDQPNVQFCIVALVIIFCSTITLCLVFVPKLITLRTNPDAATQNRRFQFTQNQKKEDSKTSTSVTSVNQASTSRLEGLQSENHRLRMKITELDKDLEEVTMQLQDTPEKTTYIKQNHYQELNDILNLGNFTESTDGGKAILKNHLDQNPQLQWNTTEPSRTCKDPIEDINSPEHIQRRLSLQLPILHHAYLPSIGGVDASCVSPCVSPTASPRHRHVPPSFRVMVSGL

α9α10 nAChR [2] = molecular target: T8, α9α10 nAChR; settings: read-out: IC50 α9α10; cited from earlier work

T1 sequence (P04757 26-499 limits assumed): as the sequence (P04757 26-499 limits assumed) above
T1 sequence (P12390 25-500 limits assumed): as the sequence (P12390 25-500 limits assumed) above

SMILES	IC50 (rat α3β2 nAChRs)	selectivity index (SI) (rat α3β2 nAChRs)	IC50 (α2β2 nAChR)	IC50 (α2β4 nAChR)	IC50 (α3β4 nAChR)	IC50 (α4β2 nAChR)	IC50 (α4β4 nAChR)	IC50 (α7 nAChR)	IC50 (α9α10 nAChR [1])	IC50 (GABABR-coupled Cav2.2)	inhibition at 10 µM (GABABR-coupled Cav2.2; HEK-293T, read-out: inhibition of peak current amplitude, SEM)	IC50 (α9α10 nAChR [2])
C[C@@H]1NC(=O)[C@@H]2CCCN2C(=O)[C@H](Cc2c[nH]cn2)NC(=O)[C@H](CO)NC(=O)[C@@H]2CSSC[C@@H](C(N)=O)NC(=O)[C@H](Cc3ccccc3)NC(=O)[C@H](Cc3ccc(O)cc3)NC(=O)[C@@H]3CCCN3C(=O)[C@H](CC(N)=O)NC(=O)[C@H](CC(N)=O)NC(=O)CNC(=O)[C@H](CO)NC(=O)[C@H](CSSC[C@H](NC(=O)CN)C(=O)N2)NC1=O [Lt1.3-II] (H-GCCSHPACSGNNPYFC-NH2; disulfide 2-8, 3-16)	44.8 nM	> 200	> 10 µM	> 10 µM	> 10 µM	> 10 µM	> 10 µM	> 10 µM	> 10 µM	> 10000 nM	3.2 ± 1.8%	
CC[C@H](C)[C@@H]1NC(=O)[C@H](Cc2cnc[nH]2)NC(=O)[C@@H]2CCCN2C(=O)[C@H](CC(N)=O)NC(=O)[C@H](CC(N)=O)NC(=O)[C@H](C(C)C)NC(=O)[C@H](CC(N)=O)NC(=O)[C@@H]2CSSC[C@H](NC(=O)CN)C(=O)N[C@@H](CSSC[C@@H](C(N)=O)NC1=O)C(=O)N[C@@H](CO)C(=O)N[C@@H](Cc1cnc[nH]1)C(=O)N1CCC[C@H]1C(=O)N[C@@H](C)C(=O)N2 [RegIIA, reference compound] (H-GCCSHPACNVNNPHIC-NH2; disulfide 2-8, 3-16)	34.5 nM											> 1000 nM
CC[C@H](C)[C@@H]1NC(=O)[C@H](CCC(=O)O)NC(=O)[C@@H]2CCCN2C(=O)[C@H](Cc2cnc[nH]2)NC(=O)[C@H](CC(=O)O)NC(=O)[C@H](Cc2ccc(O)cc2)NC(=O)[C@H](CC(N)=O)NC(=O)[C@@H]2CSSC[C@H](NC(=O)CN)C(=O)N[C@@H](CSSC[C@@H](C(N)=O)NC1=O)C(=O)N[C@@H](CO)C(=O)N[C@@H](CC(=O)O)C(=O)N1CCC[C@H]1C(=O)N[C@@H](CCCNC(=N)N)C(=O)N2 [Vc1.1, reference compound]										2.4 nM		
